Here are results for 16 molecules from US20250059164A1, “IRAK DEGRADERS AND USES THEREOF” (Kymera Therapeutics, Inc., priority 2023, published 2025).

For one data set, the target named is T1, IRAK4 (Homo sapiens, UniProt Q9NWZ3).
T1 construct: endogenous in cells; host or cells: OCI-LY10
T1 sequence (Q9NWZ3 1-460): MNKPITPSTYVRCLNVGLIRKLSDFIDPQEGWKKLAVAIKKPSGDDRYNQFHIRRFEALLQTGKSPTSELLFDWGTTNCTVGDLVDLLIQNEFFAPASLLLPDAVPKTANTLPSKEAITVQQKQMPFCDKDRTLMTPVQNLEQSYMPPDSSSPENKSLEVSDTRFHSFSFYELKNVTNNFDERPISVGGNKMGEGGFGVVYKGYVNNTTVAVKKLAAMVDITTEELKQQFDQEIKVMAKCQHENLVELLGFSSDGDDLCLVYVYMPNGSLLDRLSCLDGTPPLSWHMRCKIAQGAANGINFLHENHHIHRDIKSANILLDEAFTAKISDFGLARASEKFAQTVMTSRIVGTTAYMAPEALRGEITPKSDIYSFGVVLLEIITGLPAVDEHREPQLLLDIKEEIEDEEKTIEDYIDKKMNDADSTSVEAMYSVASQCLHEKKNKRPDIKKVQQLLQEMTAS
The data set is described as follows: IRAK4 MSD degradation in OCI-LY10. Type of data set: cell-based. The note with it: OCI-LY10 cells, 24 hrs, Meso Scale Discovery. Put shortly:
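OCI-LY10 cells treated 4 to 24 hours at 37° C. with 8-dose 1:3 series, top 1 to 10 μM. IRAK4 in lysates quantified by MSD sandwich immunoassay (mouse capture, rabbit detection, SULFO-TAG anti-rabbit). DC50 from three-parameter logistic fit.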
On to `Cn1c(=O)n(C2CCC(=O)NC2=O)c2cccc([C@@H]3CCN(C[C@H]4CC[C@H](c5nc6cc(C(C)(C)O)c(NC(=O)c7ccnc(C(F)(F)F)n7)cc6s5)CC4)C[C@H]3F)c21` (some centres unmarked) [I-170], for which the DC50 (commonly the concentration at which degradation of the target reaches its halfway point) is less than 0.01 µM.

Molecule `Cn1c(=O)n(C2CCC(=O)NC2=O)c2cccc([C@@H]3CCN(C[C@H]4CC[C@H](n5cc6cc(NC(=O)c7cncc(C(F)(F)F)n7)c(C(C)(C)O)cc6n5)CC4)C[C@H]3F)c21` (some centres unmarked) [I-171] registered a DC50 of less than 0.01 µM.

Take `Cn1c(=O)n(C2CCC(=O)NC2=O)c2cccc([C@@H]3CCN(C[C@H]4CC[C@H](n5cc6cc(NC(=O)c7cncc(C(F)(F)F)n7)c(C#N)cc6n5)CC4)C[C@H]3F)c21` (some centres unmarked) [I-172]: the DC50 was less than 0.01 µM.

As to `Cn1c(=O)n(C2CCC(=O)NC2=O)c2cccc([C@@H]3CCN(C[C@H]4CC[C@H](c5nc6cc(C(C)(C)O)c(NC(=O)c7cncc(C(F)(F)F)n7)cc6s5)CC4)C[C@H]3F)c21` (some centres unmarked) [I-173], the DC50 is less than 0.01 µM.

Molecule `Cn1c(=O)n(C2CCC(=O)NC2=O)c2cccc([C@@H]3CCN(C[C@H]4CC[C@H](n5cc6cc(NC(=O)c7cc(C(F)(F)F)cnn7)ccc6n5)CC4)C[C@H]3F)c21` (some centres unmarked) [I-175] displayed a DC50 greater than 0.2 µM.

Molecule `Cn1c(=O)n(C2CCC(=O)NC2=O)c2cccc(C#CCN3CCN(C[C@H]4CC[C@H](n5cc(NC(=O)c6cnn7ccc(N8C[C@H]9C[C@@H]8CO9)nc67)c(C(F)F)n5)CC4)C(=O)C3)c21` (some centres unmarked) [I-185] had a DC50 of less than 0.01 µM.

As to `Cn1c(=O)n(C2CCC(=O)NC2=O)c2cccc(C#CCN3CCN(C[C@H]4CC[C@H](n5cc(NC(=O)c6cnn7ccc(N8C[C@H]9C[C@@H]8CO9)nc67)c(C(F)F)n5)CC4)CC3=O)c21` (some centres unmarked) [I-186], the DC50 was less than 0.01 µM.

The molecule `Cn1c(=O)n(C2CCC(=O)NC2=O)c2cccc([C@@H]3CCN(C[C@H]4CC[C@H](n5cc6cc(NC(=O)c7cncc(C#N)c7)c(C(C)(C)O)cc6n5)CC4)C[C@H]3F)c21` (some centres unmarked) [I-188] returned a DC50 of less than 0.01 µM.

Consider `COc1cc2nn([C@H]3CC[C@H](CN4CC[C@@H](c5cccc6c5n(C)c(=O)n6C5CCC(=O)NC5=O)[C@H](F)C4)CC3)cc2cc1NC(=O)c1cncc(C(F)(F)F)n1` (some centres unmarked) [I-189], for which the DC50 was less than 0.01 µM.

The molecule `Cn1c(=O)n(C2CCC(=O)NC2=O)c2cccc([C@@H]3CCN(C[C@H]4CC[C@H](n5cc6cc(NC(=O)c7ccnc(C(F)(F)F)n7)ccc6n5)CC4)C[C@H]3F)c21` (some centres unmarked) [I-190] displayed a DC50 greater than 0.2 µM.

Molecule `Cn1c(=O)n(C2CCC(=O)NC2=O)c2cccc(N3CCC(F)(CN4CCC(c5nc6cc(C(C)(C)O)c(NC(=O)c7cccc(C(F)(F)F)n7)cc6s5)CC4)CC3)c21` (centres unmarked) [I-191] displayed a DC50 of 0.01 to 0.1 µM.

`Cn1c(=O)n(C2CCC(=O)NC2=O)c2cccc([C@@H]3CCN(C[C@H]4CC[C@H](c5cn6cc(NC(=O)c7cncc(C(F)(F)F)n7)ccc6n5)CC4)C[C@H]3F)c21` (some centres unmarked) [I-193]: the DC50 was less than 0.01 µM.

On to `Cn1c(=O)n(C2CCC(=O)NC2=O)c2cccc([C@@H]3CCN(C[C@H]4CC[C@H](c5cc6cc(NC(=O)c7cncc(C(F)(F)F)n7)ccn6n5)CC4)C[C@H]3F)c21` (some centres unmarked) [I-194], for which the DC50 was less than 0.01 µM.

For `Cn1c(=O)n(C2CCC(=O)NC2=O)c2cccc([C@@H]3CCN(C[C@H]4CC[C@H](n5cc6cc(NC(=O)c7nccc(C(F)(F)F)n7)ccc6n5)CC4)C[C@H]3F)c21` (some centres unmarked) [I-195], the DC50 was greater than 0.2 µM.

`Cn1c(=O)n(C2CCC(=O)NC2=O)c2cccc([C@@H]3CCN(C[C@H]4CC[C@H](n5cc6cc(NC(=O)c7cc(C(F)(F)F)ncn7)ccc6n5)CC4)C[C@H]3F)c21` (some centres unmarked) [I-196] registered a DC50 greater than 0.2 µM.

For `Cn1c(=O)n(C2CCC(=O)NC2=O)c2cccc(N3CCC(F)(CN4CCC(c5nc6cc(C(C)(C)O)c(NC(=O)c7cccc(C(F)(F)F)n7)cc6o5)CC4)CC3)c21` (centres unmarked) [I-197], the DC50 was greater than 0.2 µM.

Test system in another data set: not listed separately
Description: Rodent pharmacokinetics (rat PK). The note with it: po, dosed intravenously or orally by gavage, plasma, read-out: F % (bioavailability). It counts as in vivo. Put shortly:
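Rats were dosed IV or by oral gavage, with jugular blood taken predose and at 5 min (IV only), 15, 30 min and 1, 2, 4, 8, 24 h. Plasma was separated by centrifugation at 4 °C. Oral bioavailability (F %) is coded A (≥5%) or B (≤5%).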
In the case of `Cn1c(=O)n(C2CCC(=O)NC2=O)c2cccc([C@@H]3CCN(C[C@H]4CC[C@H](c5nc6cc(C(C)(C)O)c(NC(=O)c7ccnc(C(F)(F)F)n7)cc6s5)CC4)C[C@H]3F)c21` (some centres unmarked) [I-170], the bioavailability (commonly dose-corrected exposure relative to a reference, in per cent) is no less than 5%.

Regarding `Cn1c(=O)n(C2CCC(=O)NC2=O)c2cccc([C@@H]3CCN(C[C@H]4CC[C@H](n5cc6cc(NC(=O)c7cncc(C(F)(F)F)n7)c(C(C)(C)O)cc6n5)CC4)C[C@H]3F)c21` (some centres unmarked) [I-171], the bioavailability was no more than 5%.

In the case of `Cn1c(=O)n(C2CCC(=O)NC2=O)c2cccc([C@@H]3CCN(C[C@H]4CC[C@H](n5cc6cc(NC(=O)c7cncc(C(F)(F)F)n7)c(C#N)cc6n5)CC4)C[C@H]3F)c21` (some centres unmarked) [I-172], the bioavailability was no more than 5%.

Take `Cn1c(=O)n(C2CCC(=O)NC2=O)c2cccc([C@@H]3CCN(C[C@H]4CC[C@H](c5nc6cc(C(C)(C)O)c(NC(=O)c7cncc(C(F)(F)F)n7)cc6s5)CC4)C[C@H]3F)c21` (some centres unmarked) [I-173]: the bioavailability was no more than 5%.

In the case of `Cn1c(=O)n(C2CCC(=O)NC2=O)c2cccc([C@@H]3CCN(C[C@H]4CC[C@H](n5cc6cc(NC(=O)c7cc(C(F)(F)F)cnn7)ccc6n5)CC4)C[C@H]3F)c21` (some centres unmarked) [I-175], the bioavailability is no more than 5%.

`Cn1c(=O)n(C2CCC(=O)NC2=O)c2cccc(C#CCN3CCN(C[C@H]4CC[C@H](n5cc(NC(=O)c6cnn7ccc(N8C[C@H]9C[C@@H]8CO9)nc67)c(C(F)F)n5)CC4)C(=O)C3)c21` (some centres unmarked) [I-185]: the bioavailability is no more than 5%.

With `Cn1c(=O)n(C2CCC(=O)NC2=O)c2cccc(C#CCN3CCN(C[C@H]4CC[C@H](n5cc(NC(=O)c6cnn7ccc(N8C[C@H]9C[C@@H]8CO9)nc67)c(C(F)F)n5)CC4)CC3=O)c21` (some centres unmarked) [I-186], the bioavailability is no more than 5%.

With `Cn1c(=O)n(C2CCC(=O)NC2=O)c2cccc([C@@H]3CCN(C[C@H]4CC[C@H](n5cc6cc(NC(=O)c7cncc(C#N)c7)c(C(C)(C)O)cc6n5)CC4)C[C@H]3F)c21` (some centres unmarked) [I-188], the bioavailability was no more than 5%.

As for `COc1cc2nn([C@H]3CC[C@H](CN4CC[C@@H](c5cccc6c5n(C)c(=O)n6C5CCC(=O)NC5=O)[C@H](F)C4)CC3)cc2cc1NC(=O)c1cncc(C(F)(F)F)n1` (some centres unmarked) [I-189], the bioavailability was no more than 5%.

In the case of `Cn1c(=O)n(C2CCC(=O)NC2=O)c2cccc([C@@H]3CCN(C[C@H]4CC[C@H](n5cc6cc(NC(=O)c7ccnc(C(F)(F)F)n7)ccc6n5)CC4)C[C@H]3F)c21` (some centres unmarked) [I-190], the bioavailability was no more than 5%.

Regarding `Cn1c(=O)n(C2CCC(=O)NC2=O)c2cccc(N3CCC(F)(CN4CCC(c5nc6cc(C(C)(C)O)c(NC(=O)c7cccc(C(F)(F)F)n7)cc6s5)CC4)CC3)c21` (centres unmarked) [I-191], the bioavailability is no more than 5%.

As for `Cn1c(=O)n(C2CCC(=O)NC2=O)c2cccc([C@@H]3CCN(C[C@H]4CC[C@H](c5cn6cc(NC(=O)c7cncc(C(F)(F)F)n7)ccc6n5)CC4)C[C@H]3F)c21` (some centres unmarked) [I-193], the bioavailability is no more than 5%.

In the case of `Cn1c(=O)n(C2CCC(=O)NC2=O)c2cccc([C@@H]3CCN(C[C@H]4CC[C@H](c5cc6cc(NC(=O)c7cncc(C(F)(F)F)n7)ccn6n5)CC4)C[C@H]3F)c21` (some centres unmarked) [I-194], the bioavailability is no less than 5%.

Turning to `Cn1c(=O)n(C2CCC(=O)NC2=O)c2cccc([C@@H]3CCN(C[C@H]4CC[C@H](n5cc6cc(NC(=O)c7nccc(C(F)(F)F)n7)ccc6n5)CC4)C[C@H]3F)c21` (some centres unmarked) [I-195], the bioavailability is no more than 5%.

On to `Cn1c(=O)n(C2CCC(=O)NC2=O)c2cccc([C@@H]3CCN(C[C@H]4CC[C@H](n5cc6cc(NC(=O)c7cc(C(F)(F)F)ncn7)ccc6n5)CC4)C[C@H]3F)c21` (some centres unmarked) [I-196], for which the bioavailability is no more than 5%.

Regarding `Cn1c(=O)n(C2CCC(=O)NC2=O)c2cccc(N3CCC(F)(CN4CCC(c5nc6cc(C(C)(C)O)c(NC(=O)c7cccc(C(F)(F)F)n7)cc6o5)CC4)CC3)c21` (centres unmarked) [I-197], the bioavailability was no more than 5%.
